# Results: patent US11617735B2, “Purified forms of rofecoxib, methods of manufacture and use” (Tremeau Pharmaceuticals, Inc., priority 2018, dated 2023)
# Where two headings read alike, the source gives them in different places.
# Legend:
# [1] = Solubility in solvents by UHPLC assay; assay type: physicochemical
# Excerpt: The tool called “Early phase solvent selection: solubility prediction” was used. This tool allows to predict the solubility of material in a large scope of solvents, knowing the solubility in some of them. The solubility can be also predicted in function of temperature, and for solvent combinations. The solubility prediction is based on similar structures moieties between solvents. Therefore, the measurement of solubility in 16 different solvents allowed for the estimate of solubility in up to 106 solvents. […] Solubilities were obtained by UHPLC assay. Among these 106 solvents, 27 seemed interesting as solvent or antisolvent. DMF. NMP and DMSO are the solvents in which rofecoxib (RXB-201) is the most soluble (>100 g/L at 30° C.). Nevertheless, ICH Q3C, DMF and NMP were less suitable than DMSO which remains the best option. Thus, no changes were implemented regarding the solvent.
# Since the main purpose of the recrystallization is to decrease the rate of one single identified impurity, 4-[4-(methylsulfinyl)phenyl]-3-phenyl-2(5H)-furanone solubilities were measured in a couple of probable antisolvents identified in Table 9. A reference of 4-[4-(methylsulfinyl)phenyl]-3-phenyl-2(5H)-furanone (CHG P059-038) was synthesized at lab on 8 g for this study, with 98% purity, as per International Patent Application No. WO/2005/120584, which is incorporated herein in its entirety. Table 10 below reports the solubility of 4-[4-(methylsulfinyl)phenyl]-3-phenyl-2(5H)-furanone in various antisolvent candidates. It is noteworthy that 4-[4-(methylsulfinyl)phenyl]-3-phenyl-2(5H)-furanone is very soluble in acetic acid. […] Alcohols can alternatively be employed as antisolvent.
# [2] = in vivo; cited from earlier work
# arthritis model = details: in vivo; cited from earlier work
# bacterial mutagenicity = details: cited from earlier work
# [3] = Stability of rofecoxib drug substance at 40° C./75% RH; assay type: physicochemical; details: Lot 16P3140F851
# Protocol: (§1) Stability data for rofecoxib drug substance (Lot 16P3140F851) are provided in Tables 6A-B. If an individual impurity is ≥0.05% area, the result is reported to the nearest 0.01%. If an individual impurity is <0.02% (LOD), the result is reported as “not detected” (ND). If an individual impurity is <0.05% area but ≥0.02% area, the result is recorded as <0.05% area.
# [4] = Stability of rofecoxib drug substance at 25° C./60% RH; assay type: physicochemical; details: Lot 16P3140F851
# Protocol: as §1
# [5] = RXB-Hydroxy formation from rofecoxib in DMSO with Na2SO3 under air (UHPLC); assay type: physicochemical; details: 5.5V DMSO
# Protocol: Trials were performed to check the effect of both temperature and sodium sulfite on the 4-[4-(methylsulphonyl)phenyl]-3-phenyl-5-hydroxyfuran-2-one rate. Pure rofecoxib (RXB-201) (F851) was solubilized in 5.5V DMSO. on which Na2SO3 was added. Three amounts of Na2SO3 were tested: • 0%: rofecoxib (RXB-201) post filtration • 0.5%: ashes result obtained on pilot batch (crude rofecoxib (RXB-201) F801) • 1.5%: ashes result obtained on APG P052-110 batch
# Samples were subjected to 2 different temperatures under air atmosphere: • 40° C.: current heating temperature for polishing filtration • 60° C.: possible future temperature for polishing filtration if DMSO volumes are reduced for better productivity.
# [6] = Stability of isolated crude rofecoxib towards hydrogen peroxide; assay type: physicochemical; details: crude unwashed, stored at room temperature for 17 days (CHG P059-104)
# Protocol: Several verifications were performed to confirm the feasibility of hydrogen peroxide removal: • No corrosion of Stainless steel 316L in contact with crude rofecoxib (RXB-201) mother liquors (enriched in excess hydrogen peroxide) after 10 days at 20° C. […] Crude washings seem to be efficient enough to remove peroxide traces in cake washings. • Stability of isolated crude rofecoxib (RXB-201) towards hydrogen peroxide is very satisfying. Crude unwashed rofecoxib (RXB-201) was stored at room temperature for 17 days. No evolution of UHPLC profile was observed (CHG P059-104).
# [7] = test system: Salmonella typhimurium (TA98, TA100, TA1535, TA97a) and E. coli (WP2, WP2uvrA, WP2 uvrA pKM101); details: with and without S9, up to 6000 μg/plate; cited from earlier work
# [8] = test system: Chinese hamster lung cells; details: all concentrations tested, with and without S-9; cited from earlier work
# CHO cells = details: 25 to 125 μM with S-9 or 25 to 100 μM without S-9; cited from earlier work
# mice = details: dose levels up to 60 mg/kg; cited from earlier work
# rats = details: dose levels up to 8 mg/kg; cited from earlier work
# [9] = analog data from software training sets / literature
smiles,measurement,setting,value
"C[S+]([O-])c1ccc(C2=C(c3ccccc3)C(=O)OC2)cc1 (stereo not drawn) [A-STG4-01, 4-(4-(methylsulfinyl)phenyl)-3-phenylfuran-2(5H)-one]",solubility,"[1]; acetic acid, 30 °C, organic solvent or mixture, Table 10: Acetic acid, 30 °C, read-out: Solubility",1540 mg/mL
same,solubility,"[1]; acetic acid, organic solvent or mixture, acetic acid, temperature not stated, read-out: Solubility in acetic acid",> 1000 mg/mL
same,solubility,"[1]; ethanol, 30 °C, organic solvent or mixture, Table 10: Ethanol, 30 °C, read-out: Solubility",28 mg/mL
same,solubility,"[1]; isopropanol (IPA), 30 °C, organic solvent or mixture, Table 10: IPA, 30 °C, read-out: Solubility",0.2 mg/mL
same,solubility,"[1]; n-butanol, 30 °C, organic solvent or mixture, Table 10: n-Butanol, 30 °C, read-out: Solubility",14 mg/mL
same,solubility,"[1]; water, 30 °C, water, Table 10: Water, 30 °C, read-out: Solubility",0.7 mg/mL
same,Pharmacokinetic profile compared with rofecoxib,[2],slightly improved
same,Pharmacological activity in an arthritis model compared with rofecoxib,arthritis model,better
"N#CCc1ccccc1 [A-RSM2-01, 2-phenylacetonitrile]",Experimental mutagenicity,bacterial mutagenicity; [9],negative
"CS(=O)(=O)c1ccc(C2=C(c3ccccc3)C(=O)OC2)cc1 [Rofecoxib, 4-[4-(methylsulfonyl)phenyl]-3-phenyl-2(5H)-furanone]",solubility,"[1]; DMF, 30 °C",133 mg/mL
same,solubility,"[1]; DMF, 30 °C, organic solvent or mixture, DMF, 30 °C, read-out: Solubility",> 100 mg/mL
same,solubility,"[1]; DMSO, 20 °C, organic solvent or mixture, DMSO, 20 °C, read-out: Solubility",93 mg/mL
same,solubility,"[1]; DMSO, 30 °C",107 mg/mL
same,solubility,"[1]; DMSO, 30 °C, organic solvent or mixture, DMSO, 30 °C, read-out: Solubility",> 100 mg/mL
same,solubility,"[1]; DMSO, 40 °C, organic solvent or mixture, DMSO, 40 °C, read-out: Solubility",133 mg/mL
same,solubility,"[1]; DMSO, 50 °C, organic solvent or mixture, DMSO, 50 °C, read-out: Solubility",181 mg/mL
same,solubility,"[1]; DMSO, 60 °C, organic solvent or mixture, DMSO, 60 °C, read-out: Solubility",181 mg/mL
same,solubility,"[1]; NMP, 30 °C, organic solvent or mixture, NMP, 30 °C, read-out: Solubility",> 100 mg/mL
same,solubility,"[1]; acetic acid, 30 °C, organic solvent or mixture, Acetic acid, 30 °C, read-out: Solubility",5 mg/mL
same,solubility,"[1]; acetone, 30 °C, organic solvent or mixture, Acetone, 30 °C, read-out: Solubility",28 mg/mL
same,solubility,"[1]; acetonitrile, 30 °C, organic solvent or mixture, Acetonitrile, 30 °C, read-out: Solubility",41 mg/mL
same,solubility,"[1]; anisole, 30 °C, organic solvent or mixture, Anisole, 30 °C, read-out: Solubility",22 mg/mL
same,solubility,"[1]; chlorobenzene, 30 °C, organic solvent or mixture, Chlorobenzene, 30 °C, read-out: Solubility",2.3 mg/mL
same,solubility,"[1]; dichloromethane, 30 °C, organic solvent or mixture, Dichloromethane, 30 °C, read-out: Solubility",45 mg/mL
same,solubility,"[1]; ethyl acetate, 30 °C, organic solvent or mixture, Ethyl acetate, 30 °C, read-out: Solubility",4.7 mg/mL
same,solubility,"[1]; methanol, 30 °C, organic solvent or mixture, Methanol, 30 °C, read-out: Solubility",1.8 mg/mL
same,solubility,"[1]; n-butanol, 30 °C, organic solvent or mixture, n-butanol, 30 °C, read-out: Solubility",0.2 mg/mL
same,solubility,"[1]; n-heptane, 30 °C, organic solvent or mixture, n-heptane, 30 °C, read-out: Solubility",< 0.1 mg/mL
same,solubility,"[1]; toluene, 30 °C, organic solvent or mixture, Toluene, 30 °C, read-out: Solubility",1.2 mg/mL
same,solubility,"[1]; water, 30 °C, water, 30 °C, read-out: Solubility",< 0.1 mg/mL
same,Solubility in water (descriptive),"[1]; water, insoluble regarding US pharmacopeia",very poorly soluble
same,Appearance,[3]; 1 Month,Off-white
same,Assay by HPLC,[3]; 1 Month,99.6 w/w
same,Impurities by HPLC: RRT ~ 0.5,[3]; 1 Month,<0.05 % area
same,Impurities by HPLC: RXB-furanone,[3]; 1 Month,0.08 % area
same,Impurities by HPLC: Total Impurities,[3]; 1 Month,0.11 % area
same,Water Content by Karl Fischer,[3]; 1 Month,0.07%
same,Appearance,[3]; 3 Month,White
same,Assay by HPLC,[3]; 3 Month,100.5 w/w
same,Impurities by HPLC: RRT ~ 0.5,[3]; 3 Month,<0.05 % area
same,Impurities by HPLC: RXB-furanone,[3]; 3 Month,0.08 % area
same,Impurities by HPLC: Total Impurities,[3]; 3 Month,0.12 % area
same,Water Content by Karl Fischer,[3]; 3 Month,0.09%
same,Appearance,[3]; Initial,Off-white
same,Assay by HPLC,[3]; Initial,99.8 w/w
same,Impurities by HPLC: RRT ~ 0.5,[3]; Initial,<0.05 % area
same,Impurities by HPLC: RXB-furanone,[3]; Initial,0.08 % area
same,Impurities by HPLC: Total Impurities,[3]; Initial,0.11 % area
same,Polymorphic form by XRPD,[3]; Initial,Form A
same,Water Content by Karl Fischer,[3]; Initial,0.12%
same,Appearance,[4]; 3 Month,White
same,Assay by HPLC,[4]; 3 Month,100.4 % w/w
same,Impurities by HPLC: RRT ~ 0.5,[4]; 3 Month,<0.05 % area
same,Impurities by HPLC: RXB-furanone,[4]; 3 Month,0.08 % area
same,Impurities by HPLC: Total Impurities,[4]; 3 Month,0.11 % area
same,Water Content by Karl Fischer,[4]; 3 Month,0.08%
same,Appearance,[4]; Initial,Off-white
same,Assay by HPLC,[4]; Initial,99.8 % w/w
same,Impurities by HPLC: RRT ~ 0.5,[4]; Initial,<0.05 % area
same,Impurities by HPLC: RXB-furanone,[4]; Initial,0.08 % area
same,Impurities by HPLC: Total Impurities,[4]; Initial,0.11 % area
same,Polymorphic form by XRPD,[4]; Initial,Form A
same,Water Content by Karl Fischer,[4]; Initial,0.12%
same,RXB-Hydroxy (UPLC),"[5]; 0% Na2SO3 (residue on ignition), IPC1 (3 h), 40° C.",0.08 % a/a
same,RXB-Hydroxy (UPLC),"[5]; 0% Na2SO3 (residue on ignition), IPC1 (3 h), 60° C.",0.16 % a/a
same,RXB-Hydroxy (UPLC),"[5]; 0% Na2SO3 (residue on ignition), IPC2 (6 h), 40° C.",0.14 % a/a
same,RXB-Hydroxy (UPLC),"[5]; 0% Na2SO3 (residue on ignition), IPC2 (6 h), 60° C.",0.17 % a/a
same,RXB-Hydroxy (UPLC),"[5]; 0.5% Na2SO3 (residue on ignition), IPC1 (3 h), 40° C.",0.30 % a/a
same,RXB-Hydroxy (UPLC),"[5]; 0.5% Na2SO3 (residue on ignition), IPC1 (3 h), 60° C.",0.35 % a/a
same,RXB-Hydroxy (UPLC),"[5]; 0.5% Na2SO3 (residue on ignition), IPC2 (6 h), 40° C.",0.45 % a/a
same,RXB-Hydroxy (UPLC),"[5]; 0.5% Na2SO3 (residue on ignition), IPC2 (6 h), 60° C.",0.52 % a/a
same,RXB-Hydroxy (UPLC),"[5]; 1.5% Na2SO3 (residue on ignition), IPC1 (3 h), 40° C.",0.38 % a/a
same,RXB-Hydroxy (UPLC),"[5]; 1.5% Na2SO3 (residue on ignition), IPC1 (3 h), 60° C.",0.67 % a/a
same,RXB-Hydroxy (UPLC),"[5]; 1.5% Na2SO3 (residue on ignition), IPC2 (6 h), 40° C.",0.60 % a/a
same,RXB-Hydroxy (UPLC),"[5]; 1.5% Na2SO3 (residue on ignition), IPC2 (6 h), 60° C.",0.73 % a/a
same,Evolution of UHPLC profile,[6],No evolution
same,Mutagenicity,[7],negative
same,Mutations in Chinese hamster lung cells,[8],negative
same,Percent of aberrant cells,CHO cells,no significant increases
same,Carcinogenicity,mice,not carcinogenic
same,Carcinogenicity,rats,not carcinogenic
"CS(=O)(=O)c1ccc(C(=O)CBr)cc1 [LS-394467, 2-Bromo-1-[4-(methylsulfonyl)phenyl]-1-ethanone]",Experimental mutagenicity,bacterial mutagenicity; [9],positive
"c1ccc(SCCSc2ccccc2)cc1 [1,2-bis(phenylthio)ethane]",Experimental mutagenicity,bacterial mutagenicity; [9],non-mutagenic
"O=C(CBr)c1ccccc1 [LS-188087, 2-bromoacetophenone]",Experimental mutagenicity,bacterial mutagenicity,negative
